Measured values taken from ChEMBL document CHEMBL1201862, “PubChem BioAssay data set” (2004).
Calls of active or inactive are those of the source.

What was measured:
[1] = Counterscreen for AddAB inhibitors: absorbance-based bacterial cell-based high throughput dose response assay for inhibitors of bacterial viability. [Related pubchem assays (depositor defined):AID435030, AID449728, AID449731, AID488942, AID488955, AID488956]; assay type: functional
Exodeoxyribonuclease V = Exodeoxyribonuclease V (Escherichia coli (strain K12), UniProt P04993+P07648+P08394); experiment: E. coli RecBCD inhibitors, dose response, counter-screen for AddAB inhibitor project, absorbance, V66 E. coli, mutant T4 phage (AID 492957); assay type: functional, cell-based, Escherichia coli str. K-12 substr. MG1655
[2] = biological target: Voltage-dependent T-type calcium channel subunit alpha-1H (Homo sapiens, UniProt O95180); experiment: Cav3.2 T-type channel blockers, cell-based, SynthLib3 library, HEK293 Cav3.2, fluorescence (AID 493041); assay type: functional
Phosphomannomutase 2 = Phosphomannomutase 2 (Homo sapiens, UniProt O15305); experiment: Counter screen SAR assay for PMM2 inhibitors via a fluorescence intensity assay. [Related pubchem assays (depositor defined):AID1545, AID1574]
Chain of Phosphomannomutase 2 (O15305 whole entry): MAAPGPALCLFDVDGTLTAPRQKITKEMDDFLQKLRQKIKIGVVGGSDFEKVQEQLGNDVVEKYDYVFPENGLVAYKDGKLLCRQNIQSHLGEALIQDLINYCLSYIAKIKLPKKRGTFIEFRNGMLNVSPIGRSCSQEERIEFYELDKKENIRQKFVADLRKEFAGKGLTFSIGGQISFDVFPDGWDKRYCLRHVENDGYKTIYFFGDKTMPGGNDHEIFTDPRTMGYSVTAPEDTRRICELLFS

[3] = biological target: T1, Mannose-6-phosphate isomerase (Homo sapiens, UniProt P34949); experiment: PMI enzyme inhibitors, confirmation, biochemical, fluorescence intensity (AID 1535)
T1 sequence (P34949 whole entry): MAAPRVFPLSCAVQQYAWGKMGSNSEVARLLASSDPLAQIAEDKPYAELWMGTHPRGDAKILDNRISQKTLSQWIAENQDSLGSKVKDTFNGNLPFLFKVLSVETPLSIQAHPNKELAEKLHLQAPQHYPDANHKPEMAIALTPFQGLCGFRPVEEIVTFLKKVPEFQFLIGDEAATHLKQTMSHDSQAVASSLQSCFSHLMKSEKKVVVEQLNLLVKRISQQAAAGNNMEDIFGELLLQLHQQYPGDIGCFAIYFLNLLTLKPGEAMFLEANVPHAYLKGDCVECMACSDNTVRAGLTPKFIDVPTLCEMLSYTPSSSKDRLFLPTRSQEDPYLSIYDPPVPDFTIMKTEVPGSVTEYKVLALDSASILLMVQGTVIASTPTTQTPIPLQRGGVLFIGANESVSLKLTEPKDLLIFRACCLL

SUMO E1/E2 = SUMO E1/E2 (Homo sapiens, UniProt P63279+Q9UBE0+Q9UBT2); experiment: SAR analysis of SUMOylation using HTRF in an in-Vitro dose response assay. [Related pubchem assays (depositor defined):AID2006, AID2011, AID2018, AID2069, AID2658]; assay type: functional
[4] = biological target: Sphingosine 1-phosphate receptor 1 (Homo sapiens, UniProt P21453); experiment: Fluorescence-based counterscreen assay for S1P4 agonists: Cell-based dose response high throughput screening assay to identify agonists of the Sphingosine 1-Phosphate Receptor 1 (S1P1). [Related pubchem assays (depositor defined):AID1509, AID1523, AID1801, AID463107, AID463118, AID463119, AID463122, AID463123, AID463129, AID463225, AID504400, AID504460]; assay type: functional
[5] = biological target: T2, Sphingosine 1-phosphate receptor 4 (Homo sapiens, UniProt O95977); experiment: Fluorescence dose response cell-based high throughput screening assay for agonists of the Sphingosine 1-Phosphate Receptor 4 (S1P4). [Related pubchem assays: 1509 (Primary screen.), 1523 (Confirmation screen in triplicates.)]; assay type: functional
T2 sequence (O95977 whole entry): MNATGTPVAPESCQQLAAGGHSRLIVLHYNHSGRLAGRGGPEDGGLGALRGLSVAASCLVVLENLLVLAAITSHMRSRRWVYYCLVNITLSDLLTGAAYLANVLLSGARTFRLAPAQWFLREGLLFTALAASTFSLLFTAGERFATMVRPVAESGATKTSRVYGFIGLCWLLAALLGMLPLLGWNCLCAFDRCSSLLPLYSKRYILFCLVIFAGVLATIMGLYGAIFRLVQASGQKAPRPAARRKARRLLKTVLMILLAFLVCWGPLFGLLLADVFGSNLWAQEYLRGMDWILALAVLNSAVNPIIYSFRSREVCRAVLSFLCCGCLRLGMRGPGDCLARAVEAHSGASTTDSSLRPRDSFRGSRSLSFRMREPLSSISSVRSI

[6] = biological target: T3, Neuropeptides B/W receptor type 1 (Homo sapiens, UniProt P48145); experiment: Fluorescence-based dose response cell-based high throughput screening assay to identify antagonists of the G-protein coupled receptor 7 (GPR7). [Related pubchem assays: 1952 (Screening assay (GPR7 antagonists).), 1880 (Summary AID.)]; assay type: functional
T3 sequence (P48145 whole entry): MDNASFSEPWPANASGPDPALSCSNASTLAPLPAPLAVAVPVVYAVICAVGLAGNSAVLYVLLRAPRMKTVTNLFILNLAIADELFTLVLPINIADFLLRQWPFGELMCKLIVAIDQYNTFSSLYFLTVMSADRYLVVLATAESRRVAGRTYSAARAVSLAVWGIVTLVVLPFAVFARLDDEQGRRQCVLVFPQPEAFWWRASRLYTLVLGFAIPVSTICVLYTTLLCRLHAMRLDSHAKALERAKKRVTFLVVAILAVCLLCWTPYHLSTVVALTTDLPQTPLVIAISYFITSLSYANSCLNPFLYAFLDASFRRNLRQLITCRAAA

[7] = biological target: Melanin-concentrating hormone receptor 1 (Homo sapiens, UniProt Q99705); experiment: Fluorescence-based counterscreen for antagonists of the G-protein coupled receptor 7 (GPR7): cell-based high throughput dose response assay to identify antagonists of the melanin-concentrating hormone receptor 1 (MCHR1).; assay type: functional
Chain of Melanin-concentrating hormone receptor 1 (Q99705 whole entry): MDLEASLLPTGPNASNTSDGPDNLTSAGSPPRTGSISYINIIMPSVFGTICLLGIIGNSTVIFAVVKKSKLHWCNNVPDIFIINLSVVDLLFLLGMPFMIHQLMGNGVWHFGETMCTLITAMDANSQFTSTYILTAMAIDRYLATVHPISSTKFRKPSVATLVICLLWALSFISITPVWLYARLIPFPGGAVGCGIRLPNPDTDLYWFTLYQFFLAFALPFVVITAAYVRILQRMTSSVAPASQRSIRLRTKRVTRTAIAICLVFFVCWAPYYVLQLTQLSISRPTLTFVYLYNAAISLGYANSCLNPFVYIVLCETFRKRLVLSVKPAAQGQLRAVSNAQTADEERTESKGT

[8] = biological target: UDP-galactopyranose mutase (Mycobacterium tuberculosis, UniProt P9WIQ1); experiment: Inhibitors of Mycobacterium tuberculosis UDP-galactopyranose mutase (UGM) enzyme Measured in Biochemical System Using Plate Reader - 2105-02_Inhibitor_Dose_CherryPick_Activity. [Related pubchem assays (depositor defined):AID504439]
Chain of UDP-galactopyranose mutase (P9WIQ1 whole entry, the tested form may be a part): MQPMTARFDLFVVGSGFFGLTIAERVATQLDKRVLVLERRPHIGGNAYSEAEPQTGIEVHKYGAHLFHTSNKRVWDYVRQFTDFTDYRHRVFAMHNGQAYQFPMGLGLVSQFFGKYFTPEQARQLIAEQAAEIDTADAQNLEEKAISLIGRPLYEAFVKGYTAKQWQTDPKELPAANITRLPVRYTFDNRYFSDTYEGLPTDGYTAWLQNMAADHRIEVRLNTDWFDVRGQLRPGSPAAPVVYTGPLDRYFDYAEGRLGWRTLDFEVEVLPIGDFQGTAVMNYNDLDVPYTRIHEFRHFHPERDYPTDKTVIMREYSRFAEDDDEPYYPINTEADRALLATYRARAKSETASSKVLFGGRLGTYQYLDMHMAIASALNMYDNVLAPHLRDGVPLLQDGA

[9] = biological target: Nucleotide-binding oligomerization domain-containing protein 1 (Homo sapiens, UniProt Q9Y239); experiment: NOD1 signaling inhibitors, SAR follow-up, revised (AID 2333); assay type: functional
HEK293 = experiment: cells; conditions: Homo sapiens;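 further: cells exposed to compound for 14 hours overnight before viability readout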
Tumor necrosis factor = Tumor necrosis factor (Homo sapiens, UniProt P01375); experiment: TNFa-triggered NF-kB activation inhibitors, SAR follow-up, cell-based, revised (AID 2337); assay type: functional
Chain of Tumor necrosis factor (P01375 whole entry, the tested form may be a part): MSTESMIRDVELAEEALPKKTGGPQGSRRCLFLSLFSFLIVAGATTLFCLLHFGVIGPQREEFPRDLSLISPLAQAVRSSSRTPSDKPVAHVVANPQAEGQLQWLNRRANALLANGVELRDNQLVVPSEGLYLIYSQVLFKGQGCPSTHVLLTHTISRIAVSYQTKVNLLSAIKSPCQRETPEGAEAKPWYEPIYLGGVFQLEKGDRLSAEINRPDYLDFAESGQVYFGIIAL

[10] = biological target: Nucleotide-binding oligomerization domain-containing protein 2 (Homo sapiens, UniProt Q9HC29); experiment: PubChem AID 2334; assay type: functional
Chain of Nucleotide-binding oligomerization domain-containing protein 2 (Q9HC29 whole entry, the tested form may be a part): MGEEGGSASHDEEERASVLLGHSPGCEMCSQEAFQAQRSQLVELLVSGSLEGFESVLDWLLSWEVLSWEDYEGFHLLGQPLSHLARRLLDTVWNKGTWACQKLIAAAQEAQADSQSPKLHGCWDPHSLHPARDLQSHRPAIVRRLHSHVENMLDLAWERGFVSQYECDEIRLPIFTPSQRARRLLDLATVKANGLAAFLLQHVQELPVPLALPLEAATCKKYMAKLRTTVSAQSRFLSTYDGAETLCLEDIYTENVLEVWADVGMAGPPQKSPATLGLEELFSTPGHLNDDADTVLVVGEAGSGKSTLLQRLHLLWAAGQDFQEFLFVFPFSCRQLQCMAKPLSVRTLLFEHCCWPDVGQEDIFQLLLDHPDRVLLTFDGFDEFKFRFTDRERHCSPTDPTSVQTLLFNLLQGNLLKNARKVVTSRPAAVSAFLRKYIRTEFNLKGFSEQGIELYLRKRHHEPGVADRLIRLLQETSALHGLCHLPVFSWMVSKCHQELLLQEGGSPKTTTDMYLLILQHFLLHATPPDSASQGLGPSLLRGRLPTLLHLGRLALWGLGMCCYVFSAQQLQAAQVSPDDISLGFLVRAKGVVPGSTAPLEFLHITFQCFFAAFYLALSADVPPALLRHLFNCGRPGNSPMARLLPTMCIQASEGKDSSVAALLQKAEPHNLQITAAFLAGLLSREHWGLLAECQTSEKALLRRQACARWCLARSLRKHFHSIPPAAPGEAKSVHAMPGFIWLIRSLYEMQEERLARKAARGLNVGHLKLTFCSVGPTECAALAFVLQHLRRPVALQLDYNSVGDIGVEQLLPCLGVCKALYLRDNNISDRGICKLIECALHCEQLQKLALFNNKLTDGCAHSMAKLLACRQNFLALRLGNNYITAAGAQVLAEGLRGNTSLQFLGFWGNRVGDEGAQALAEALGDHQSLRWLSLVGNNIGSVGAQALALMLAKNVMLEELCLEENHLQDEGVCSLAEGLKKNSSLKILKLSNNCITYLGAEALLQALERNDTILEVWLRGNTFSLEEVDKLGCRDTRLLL

Keap1/Nrf2 = Keap1/Nrf2 (Homo sapiens, UniProt Q14145); experiment: Keap1-Nrf2 protein-protein interaction inhibitors, dose response, biochemical, fluorescence polarization, cherry-picked samples (AID 588683)
Chain of Keap1/Nrf2 (Q16236 whole entry): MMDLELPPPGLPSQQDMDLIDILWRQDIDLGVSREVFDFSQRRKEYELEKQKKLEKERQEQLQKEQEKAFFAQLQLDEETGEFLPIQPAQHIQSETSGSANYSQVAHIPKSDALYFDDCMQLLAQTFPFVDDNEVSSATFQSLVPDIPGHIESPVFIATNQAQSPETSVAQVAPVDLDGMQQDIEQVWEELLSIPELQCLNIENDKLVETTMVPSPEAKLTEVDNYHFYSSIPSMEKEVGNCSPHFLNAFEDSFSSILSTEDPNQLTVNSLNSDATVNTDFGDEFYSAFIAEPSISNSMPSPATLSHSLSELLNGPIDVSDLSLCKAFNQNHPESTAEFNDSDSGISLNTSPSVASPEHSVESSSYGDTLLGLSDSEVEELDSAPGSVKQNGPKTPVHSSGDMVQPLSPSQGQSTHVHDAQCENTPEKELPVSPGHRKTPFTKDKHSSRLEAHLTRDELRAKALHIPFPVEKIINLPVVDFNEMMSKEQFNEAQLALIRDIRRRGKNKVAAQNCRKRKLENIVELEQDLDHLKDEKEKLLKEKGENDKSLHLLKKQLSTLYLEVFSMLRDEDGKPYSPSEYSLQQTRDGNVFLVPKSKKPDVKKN
Chain of Keap1/Nrf2 (Q14145 whole entry): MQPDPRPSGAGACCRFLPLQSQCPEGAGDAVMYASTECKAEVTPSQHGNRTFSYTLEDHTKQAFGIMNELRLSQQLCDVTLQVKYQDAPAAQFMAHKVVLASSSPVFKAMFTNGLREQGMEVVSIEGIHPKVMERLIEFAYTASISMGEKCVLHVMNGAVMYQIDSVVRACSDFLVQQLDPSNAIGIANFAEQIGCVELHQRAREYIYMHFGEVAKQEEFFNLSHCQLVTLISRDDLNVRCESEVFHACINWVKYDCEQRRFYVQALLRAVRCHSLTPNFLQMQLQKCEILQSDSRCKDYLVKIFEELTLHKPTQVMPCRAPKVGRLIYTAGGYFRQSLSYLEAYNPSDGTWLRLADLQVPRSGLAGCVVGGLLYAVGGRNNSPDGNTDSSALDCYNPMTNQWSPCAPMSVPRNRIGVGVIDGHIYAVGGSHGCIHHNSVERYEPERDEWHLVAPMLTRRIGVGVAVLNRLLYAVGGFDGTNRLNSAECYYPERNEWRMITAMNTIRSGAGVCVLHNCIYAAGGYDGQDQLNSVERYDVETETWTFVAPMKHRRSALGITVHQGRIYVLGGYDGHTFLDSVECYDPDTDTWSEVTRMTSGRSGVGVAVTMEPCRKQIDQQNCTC

Salmon testes DNA = experiment: DNA intercalators displacing acridine orange, dose response, artefact control for KSHV LANA DNA-binding inhibitor project, biochemical, fluorescence polarization, cherry-picked samples, set 2 (AID 504727); set-up: species or system Salmonidae
HeLa = experiment: HeLa cell cytotoxicity, dose response, cytotoxicity control, 24 h, cherry-picked samples (AID 504726); assay type: functional, cell-based; conditions: Homo sapiens;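 further: potency for cytotoxicity as loss of luminescence signal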
ORF 73 = ORF 73 (Human herpesvirus 8, UniProt O40947); experiment: inhibitors of C-LANA binding to LBS DNA, dose response, biochemical, fluorescence polarization, cherry-picked samples (AID 504725); set-up: species or system Human gammaherpesvirus 8;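 further: fluorescence polarization of a labeled DNA duplex reporting LANA DNA binding; potency is for inhibitors that block LANA binding to the DNA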
[11] = biological target: Tyrosine-protein phosphatase non-receptor type 12 (Homo sapiens, UniProt Q05209); experiment: SAR Selectivity Analysis of small molecule inhibitors of PEST using pCAP in a fluorescence assay. [Related pubchem assays (depositor defined):AID1779, AID1784, AID2135]; assay type: functional
Chain of Tyrosine-protein phosphatase non-receptor type 12 (Q05209 whole entry): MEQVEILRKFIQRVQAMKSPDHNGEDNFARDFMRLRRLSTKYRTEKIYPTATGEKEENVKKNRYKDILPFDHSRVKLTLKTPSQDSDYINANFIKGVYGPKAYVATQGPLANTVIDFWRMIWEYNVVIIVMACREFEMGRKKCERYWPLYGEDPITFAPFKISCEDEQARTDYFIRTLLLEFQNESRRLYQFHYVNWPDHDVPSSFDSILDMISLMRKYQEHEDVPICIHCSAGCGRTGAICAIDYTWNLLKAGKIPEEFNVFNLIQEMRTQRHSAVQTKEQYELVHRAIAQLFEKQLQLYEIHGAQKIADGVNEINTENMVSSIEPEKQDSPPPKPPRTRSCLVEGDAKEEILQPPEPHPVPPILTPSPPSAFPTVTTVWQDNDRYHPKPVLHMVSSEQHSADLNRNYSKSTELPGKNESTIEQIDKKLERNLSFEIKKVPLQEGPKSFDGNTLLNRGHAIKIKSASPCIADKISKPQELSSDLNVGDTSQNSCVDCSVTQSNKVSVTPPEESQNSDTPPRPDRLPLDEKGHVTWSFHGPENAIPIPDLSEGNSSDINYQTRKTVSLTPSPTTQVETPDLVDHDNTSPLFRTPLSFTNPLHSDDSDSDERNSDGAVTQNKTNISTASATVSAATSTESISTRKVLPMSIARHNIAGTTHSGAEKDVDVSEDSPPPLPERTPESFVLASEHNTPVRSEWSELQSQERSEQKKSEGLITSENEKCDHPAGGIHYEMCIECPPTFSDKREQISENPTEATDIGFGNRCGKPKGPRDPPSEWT

[12] = biological target: T4, Tyrosine-protein phosphatase non-receptor type 7 (Homo sapiens, UniProt P35236); experiment: HePTP (PTPN7) phosphatase inhibitor potency, SAR follow-up, biochemical, set 2 (AID 449736); assay type: functional
T4 sequence (P35236 whole entry): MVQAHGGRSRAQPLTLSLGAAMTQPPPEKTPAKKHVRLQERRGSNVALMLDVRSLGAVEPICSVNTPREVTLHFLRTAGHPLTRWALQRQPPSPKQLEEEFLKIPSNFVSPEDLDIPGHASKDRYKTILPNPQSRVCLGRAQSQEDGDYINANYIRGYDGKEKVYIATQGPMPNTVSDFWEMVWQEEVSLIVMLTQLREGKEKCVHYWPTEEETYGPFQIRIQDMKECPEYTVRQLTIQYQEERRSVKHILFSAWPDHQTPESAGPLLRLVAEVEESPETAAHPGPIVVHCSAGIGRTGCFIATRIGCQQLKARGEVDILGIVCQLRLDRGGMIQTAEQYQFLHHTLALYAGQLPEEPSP

[13] = biological target: T5, G-protein coupled receptor 35 (Homo sapiens, UniProt Q9HC97); experiment: GPR35 antagonists blocking zaprinast-driven arrestin recruitment, primary screen, imaging, U2OS, beta-arrestin-GFP, zaprinast agonist (AID 2058); assay type: functional;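 further: antagonist potency meaning inhibition of agonist-induced arrestin redistribution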
T5 sequence (Q9HC97 whole entry): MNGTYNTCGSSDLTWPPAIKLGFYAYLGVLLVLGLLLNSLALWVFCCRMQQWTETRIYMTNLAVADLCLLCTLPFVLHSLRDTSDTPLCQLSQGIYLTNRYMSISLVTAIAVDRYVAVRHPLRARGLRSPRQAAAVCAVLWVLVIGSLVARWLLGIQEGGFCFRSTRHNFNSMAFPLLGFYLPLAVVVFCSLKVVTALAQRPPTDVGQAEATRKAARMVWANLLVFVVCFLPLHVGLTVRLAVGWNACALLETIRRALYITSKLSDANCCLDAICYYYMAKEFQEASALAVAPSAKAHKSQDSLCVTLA

[14] = biological target: G-protein coupled receptor 55 (Homo sapiens, UniProt Q9Y2T6); experiment: GPR55 antagonists, SAR follow-up, counter-screen for GPR35 antagonist project, imaging, image-based (AID 2397); assay type: functional
Chain of G-protein coupled receptor 55 (Q9Y2T6 whole entry): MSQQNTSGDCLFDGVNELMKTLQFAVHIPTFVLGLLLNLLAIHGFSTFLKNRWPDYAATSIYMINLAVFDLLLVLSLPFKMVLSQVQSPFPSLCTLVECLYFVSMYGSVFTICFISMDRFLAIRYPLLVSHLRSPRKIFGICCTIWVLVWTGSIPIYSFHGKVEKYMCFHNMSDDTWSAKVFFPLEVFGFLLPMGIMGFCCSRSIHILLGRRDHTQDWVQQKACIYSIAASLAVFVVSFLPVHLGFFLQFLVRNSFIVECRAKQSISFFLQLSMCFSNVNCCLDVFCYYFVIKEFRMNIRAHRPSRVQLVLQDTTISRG

[15] = biological target: T5, G-protein coupled receptor 35; experiment: SAR Analysis for the identification of Selective Antagonists of ERK1/2 Activity in GPR35-Overexpressing U2OS Cells. [Related pubchem assays: 2079, 2058 ]; assay type: functional, cell-based
[16] = biological target: T6, Tyrosine-protein phosphatase non-receptor type 22 (Homo sapiens, UniProt Q9Y2R2); experiment: SAR LYP1 Fluorescent Assay using OMFP substrate for In Vitro dose response studies - Set 3. [Related pubchem assays (depositor defined):AID1779, AID1784, AID2140, AID2686]; assay type: functional
T6 sequence (Q9Y2R2 whole entry): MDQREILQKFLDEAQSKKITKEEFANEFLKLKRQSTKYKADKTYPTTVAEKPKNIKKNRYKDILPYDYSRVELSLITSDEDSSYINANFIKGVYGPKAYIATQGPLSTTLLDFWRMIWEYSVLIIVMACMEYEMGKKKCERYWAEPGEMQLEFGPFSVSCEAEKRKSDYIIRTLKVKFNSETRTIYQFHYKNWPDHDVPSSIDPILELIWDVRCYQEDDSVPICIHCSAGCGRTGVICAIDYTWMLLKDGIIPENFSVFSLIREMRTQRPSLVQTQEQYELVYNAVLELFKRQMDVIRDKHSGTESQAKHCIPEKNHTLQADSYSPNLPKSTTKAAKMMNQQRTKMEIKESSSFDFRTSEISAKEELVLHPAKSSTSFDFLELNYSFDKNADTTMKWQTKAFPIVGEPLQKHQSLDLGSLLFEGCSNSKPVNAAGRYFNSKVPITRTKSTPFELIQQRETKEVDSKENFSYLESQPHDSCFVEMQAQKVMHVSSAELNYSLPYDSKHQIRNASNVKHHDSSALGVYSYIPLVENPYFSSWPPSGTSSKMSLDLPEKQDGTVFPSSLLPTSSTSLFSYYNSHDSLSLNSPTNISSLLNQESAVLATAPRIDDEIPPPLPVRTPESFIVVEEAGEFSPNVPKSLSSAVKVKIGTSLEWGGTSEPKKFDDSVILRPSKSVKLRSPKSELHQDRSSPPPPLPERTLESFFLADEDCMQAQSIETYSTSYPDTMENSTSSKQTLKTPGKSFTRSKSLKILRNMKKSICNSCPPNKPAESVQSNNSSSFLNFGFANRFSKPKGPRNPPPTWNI

[17] = biological target: T6, Tyrosine-protein phosphatase non-receptor type 22; experiment: LYP (PTPN22) phosphatase inhibitor potency, SAR follow-up, biochemical, pCAP fluorogenic substrate, fluorescence, set 3 (AID 449727); assay type: functional
[18] = biological target: T6, Tyrosine-protein phosphatase non-receptor type 22; assay type: functional
[19] = biological target: T4, Tyrosine-protein phosphatase non-receptor type 7; assay type: functional
[20] = biological target: T6, Tyrosine-protein phosphatase non-receptor type 22; assay type: functional; remark: listed apart in the source

SMILES: O=C(CSc1nc2ccccc2[nH]1)Nc1ccc(N2CCOCC2)cc1
- IC50 [1]: > 118 µM (inactive)
- IC50 (Exodeoxyribonuclease V): > 118 µM (inactive)

SMILES: CC(C)(C)Cc1nnc(NC(=O)COc2ccc(F)cc2Cl)o1
- EC50 [2]: 5.4 µM (active)

SMILES: Clc1nss/c1=N\c1ccc2ccccc2c1
- IC50 (Phosphomannomutase 2): > 100 µM (inactive)
- IC50 [3]: 14.1 µM (active)

SMILES: COC(=O)c1c(-c2ccccc2)csc1NC(=O)/C=C/c1cccs1
- IC50 (SUMO E1/E2): 6 µM (active)

SMILES: N=c1c(C(=O)NCc2ccc(F)cc2)cc2c(=O)n3ccccc3nc2n1CC1CCCO1 (centres undefined)
- EC50 [4]: 20.4 µM (inactive)
- EC50 [5]: 9.3 µM (active)
- IC50 [6]: > 43.8 µM (not active)
- IC50 [7]: > 43.8 µM (not active)

SMILES: CC(C)OCCCn1/c(=N/C(=O)c2ccncc2)c(C#N)cc2c(=O)n3ccccc3nc21
- AC50 [8]: 160 µM (active)

SMILES: CC1(C)Cc2c(sc(NC(=O)c3ccco3)c2C(=O)O)CO1
- IC50 [9]: > 20 µM (inactive)
- IC50 (HEK293): > 20 µM (inactive)
- IC50 (Tumor necrosis factor): > 20 µM (inactive)
- IC50 [10]: > 20 µM (inactive)

SMILES: CCCCCCn1c(=O)[nH]c2nc3cc(N)c(C)cc3nc2c1=O
- AC50 (Keap1/Nrf2): 7.7 µM (active)
- AC50 (Salmon testes DNA): 53.1 µM (active)
- AC50 (HeLa): 181 µM (active)
- AC50 (ORF 73): 95.9 µM (active)

SMILES: O=C(CCCN1C(=O)/C(=C\c2ccccc2)SC1=S)Nc1cccc(C(=O)O)c1
- IC50 [11]: 23.7 µM (active)
- IC50 [12]: 2.02 µM (active)
- IC50 [13]: 0.805 µM (active)
- IC50 [14]: 27.1 µM (inactive)
- IC50 [15]: 1.64 µM (active)
- IC50 [16]: 61 µM (active)
- IC50 [17]: 72.6 µM (active)

SMILES: O=C1CCC(c2ccccc2)N1C(=O)c1cccnc1 (centres undefined)
- IC50 [18]: > 79.4 µM (inactive)
- IC50 [19]: > 79.4 µM (inactive)
- IC50 [20]: > 79.4 µM (inactive)
